We go through 46 compounds from patent publication EP2161259A1, “4-Haloalkyl substituted Diaminopyrimidine” (Bayer CropScience AG, priority 2008, dated 2010).

One data set deals with Venturia inaequalis. It counts as in vivo. Particulars: 240 h, 100 ppm. An excerpt: Lösungsmittel: 24,5 Gewichtsteile Aceton 24,5 Gewichtsteile Dimethylacetamid Emulgator : 1 Gewichtsteil Alkyl-Aryl-Polyglykolether Zur […] und Emulgator und verdünnt das Konzentrat mit Wasser auf die gewünschte Konzentration. Zur Prüfung auf protektive Wirksamkeit werden junge Pflanzen mit der Wirkstoffzubereitung in der angegebenen Aufwandmenge besprüht. Nach Antrocknen des Spritzbelages werden die Pflanzen mit einer wäßrigen Konidiensuspension des […] Venturia inaequalis inokuliert und verbleiben dann 1 Tag bei ca. 20°C und 100% relativer Luftfeuchtigkeit in einer Inkubations-kabine. Die Pflanzen werden dann im Gewächshaus bei ca. 21°C und einer relativen Luftfeuchtigkeit von ca. 90% aufgestellt. 10 Tage nach der Inokulation erfolgt die Auswertung. Dabei bedeutet 0% ein Wirkungsgrad, der demjenigen der Kontrolle entspricht, während ein Wirkungsgrad von 100% bedeutet, daß kein Befall beobachtet wird.

A further data set relates to Alternaria solani. Nature of the data set: Alternaria test (tomato) / protective. It counts as in vivo.
Data set [1] deals with Fusarium nivale (var.majus). It counts as in vivo. The settings on record: 120 h, 1000 ppm. An excerpt:
[…]-Dimethylacetamid Emulgator: 1 Gewichtsteil Alkylarylpolyglykolether Zur […] und Emulgator und verdünnt das Konzentrat mit Wasser auf die gewünschte Konzentration. Zur Prüfung auf protektive Wirksamkeit besprüht man junge Pflanzen mit der Wirkstoffzubereitung in der angegebenen Aufwandmenge. Nach Antrocknen des Spritzbelages werden die Pflanzen mit Sporen mit einer Sporensuspension von Fusarium nivale (var.majus) besprüht. Die Pflanzen werden in einer Gewächshauskammer unter […] Inkubationshaube bei 10°C und 100 % relativer Luftfeuchtigkeit gestellt. 5 Tage nach der Inokulation erfolgt die Auswertung. Dabei bedeutet 0 % ein Wirkungsgrad, der demjenigen der Kontrolle entspricht, während ein Wirkungsgrad von 100 % bedeutet, dass kein Befall beobachtet wird.

In a further data set the test system is Fumonisin FB1. Nature of the data set: Production of fumonisin FB1 by Fusarium proliferatum (microtiter plate, HPLC-MS/MS). It counts as cell-based. The settings on record: 144 h, read-out: pI50 FB1.
A further data set has as its system Fusarium proliferatum. Kind of data set: microbe, parasite or virus in culture. Type of data set: cell-based. The settings on record: 144 h, read-out: pI50 Wachstum.
The test system of the next data set is Puccinia recondita. Kind of data set: Puccinia test (wheat) / protective. Type of data set: in vivo.
[2] abbreviates: 500ppm active compound, wheat, protective, evaluation 7-9 days after inoculation.

In general, chromatographic logP refers to a lipophilicity value derived from retention on a column. Read a high chromatographic logP as higher lipophilicity. Consider `O=c1[nH]c(Nc2ccccc2)ncc1Br` [IX-1, 2-Anilino-5-brompyrimidin-4(3H)-on], for which the chromatographic logP in the data set “physchem” (pH 2.3) was found to be 1.62.

As for `FC(F)CNc1nc(Nc2ccccc2)ncc1Cl` [Verbindung 1, 5-Chlor-N^4-(2,2-difluorethyl)-N^2-phenylpyrimidin-2,4-diamin], the Wirkungsgrad with Venturia inaequalis is at least 70%; in the data set on Alternaria solani (168 h, 500 ppm), at least 70%; in data set [1], at least 70%. Also, the IC50 in the data set on Fumonisin FB1 is 3.16 µM; with Fusarium proliferatum, 7.94 µM. The chromatographic logP in “physchem” (pH 2.3) was found to be 1.89.

`CC(Nc1nc(Nc2ccccc2)ncc1Cl)C(F)(F)F` (centres unmarked) [Verbindung 2] registered a chromatographic logP in the data set “physchem” (pH 2.3) of 2.87.

As to `FC(F)(F)CNc1nc(Nc2ccccc2)ncc1Cl` [Verbindung 3, 5-Chlor-N^2-phenyl-N^4-(2,2,2-trifluorethyl)pyrimidin-2,4-diamin], the Wirkungsgrad (in the data set on Venturia inaequalis; in the data set with Puccinia recondita (500 ppm); in data set [1]) was at least 70% in each case. Further, the results for the IC50 in the data set on Fumonisin FB1 and in the data set on Fusarium proliferatum were 2 µM and 12.6 µM, respectively. Further, the chromatographic logP came to 2.56 in the data set “physchem” (pH 2.3) and 3.09 in the data set “physchem” (pH 7.8).

On to `N#Cc1cccc(Nc2ncc(Cl)c(NCC(F)(F)F)n2)c1` [Verbindung 4], for which the Wirkungsgrad in the data set with Alternaria solani (168 h, 500 ppm) is given as at least 70%. In “physchem” (pH 2.7), the chromatographic logP was 2.67.

Compound `COc1cc(Nc2ncc(Cl)c(NCC(F)(F)F)n2)ccc1NC(C)=O` [Verbindung 5] registered a Wirkungsgrad with Puccinia recondita (500 ppm) of at least 70%. Also, the chromatographic logP in “physchem” (pH 2.7) was determined as 1.75.

`COc1cccc(Nc2ncc(Cl)c(NCC(F)(F)F)n2)c1` [Verbindung 6]: the Wirkungsgrad with Puccinia recondita (500 ppm) is given as at least 70%. The IC50 in the data set on Fumonisin FB1 was 1.58 µM; in the data set with Fusarium proliferatum it was 3.16 µM. Further, in “physchem” (pH 2.7), the chromatographic logP amounted to 2.55.

With `COc1ccc(Nc2ncc(Cl)c(NCC(F)(F)F)n2)cc1` [Verbindung 7], in “physchem” (pH 2.7), the chromatographic logP is 2.06.

As to `N#Cc1ccc(Nc2ncc(Cl)c(NCC(F)(F)F)n2)cc1` [Verbindung 8], in the data set “physchem” (pH 2.7), the chromatographic logP was determined as 2.77.

Compound `FC(F)(F)CNc1nc(Nc2cccc(OC(F)(F)F)c2)ncc1Cl` [Verbindung 9] had a chromatographic logP in “physchem” (pH 2.7) of 3.72.

Turning to `CS(=O)(=O)c1ccc(Nc2ncc(Cl)c(NCC(F)(F)F)n2)cc1` [Verbindung 10], the chromatographic logP in the data set “physchem” (pH 2.7) is 2.21.

In “physchem” (pH 2.7), `CN(C)S(=O)(=O)c1ccc(Nc2ncc(Cl)c(NCC(F)(F)F)n2)cc1` [Verbindung 11] gave a chromatographic logP of 2.64.

Compound `CSc1ccc(Nc2ncc(Cl)c(NCC(F)(F)F)n2)cc1Cl` [Verbindung 12] yielded a chromatographic logP in the data set “physchem” (pH 2.7) of 3.55.

Compound `CC(=O)Nc1ccc(Nc2ncc(Cl)c(NCC(F)(F)F)n2)cc1` [Verbindung 13] registered a Wirkungsgrad with Puccinia recondita (500 ppm) of at least 70%. In the data set “physchem” (pH 2.7), this compound came in with a chromatographic logP of 1.54.

In “physchem” (pH 2.7), `CC(=O)Nc1ccc(Nc2ncc(Cl)c(NCC(F)(F)F)n2)cc1Cl` [Verbindung 14] displayed a chromatographic logP of 2.04.

Turning to `CCN(C(C)=O)c1ccc(Nc2ncc(Cl)c(NCC(F)(F)F)n2)cc1` [Verbindung 15], the Wirkungsgrad with Alternaria solani (168 h, 500 ppm) is recorded as at least 70%; in the data set with Puccinia recondita (500 ppm) it was at least 70%. For the same compound, the chromatographic logP in “physchem” (pH 2.7) amounted to 2.13.

`CC(=O)N(C)c1ccc(Nc2ncc(Cl)c(NCC(F)(F)F)n2)cc1` [Verbindung 16]: the Wirkungsgrad in the data set with Alternaria solani (168 h, 500 ppm) is at least 70%; with Puccinia recondita (500 ppm), at least 70%. Besides, in the data set “physchem” (pH 2.7), the chromatographic logP is 1.92.

`O=C(Nc1ccc(Nc2ncc(Cl)c(NCC(F)(F)F)n2)cc1)C(F)(F)F` [Verbindung 17] displayed a chromatographic logP in “physchem” (pH 2.7) of 2.55.

Turning to `CC1(C(=O)Nc2ccc(Nc3ncc(Cl)c(NCC(F)(F)F)n3)cc2)CC1` [Verbindung 18], the chromatographic logP in the data set “physchem” (pH 2.7) amounted to 2.16.

Consider `CC(=O)Nc1cccc(Nc2ncc(Cl)c(NCC(F)(F)F)n2)c1` [Verbindung 19], for which the Wirkungsgrad in the data set on Puccinia recondita (500 ppm) is listed as at least 70%. In “physchem” (pH 2.7), this compound displayed a chromatographic logP of 1.66.

Regarding `C=C(C)C(=O)Nc1cccc(Nc2ncc(Cl)c(NCC(F)(F)F)n2)c1` [Verbindung 20], the chromatographic logP in the data set “physchem” (pH 2.7) turned out to be 2.16.

Take `CC(C)(C)C(=O)Nc1cccc(Nc2ncc(Cl)c(NCC(F)(F)F)n2)c1` [Verbindung 21]: the Wirkungsgrad with Puccinia recondita (500 ppm) was at least 70%. The compound also yielded a chromatographic logP in the data set “physchem” (pH 2.7) of 2.51.

The compound `CNC(=O)c1ccc(Nc2ncc(Cl)c(NCC(F)(F)F)n2)cc1` [Verbindung 22] had a chromatographic logP in “physchem” (pH 2.7) of 1.66.

In turn, `CNC(=O)c1cccc(Nc2ncc(Cl)c(NCC(F)(F)F)n2)c1` [Verbindung 23] displayed a Wirkungsgrad in the data set on Puccinia recondita (500 ppm) of at least 70%. This compound yielded a chromatographic logP in the data set “physchem” (pH 2.7) of 1.66.

For `CSc1cccc(Nc2ncc(Cl)c(NCC(F)(F)F)n2)c1` [Verbindung 24], the Wirkungsgrad (in the data set on Puccinia recondita (500 ppm); in data set [1]) was at least 70% each time. In addition, the IC50 in the data set on Fumonisin FB1 is 31.6 µM; in the data set on Fusarium proliferatum, above 50.1 µM. In addition, the chromatographic logP in the data set “physchem” (pH 2.7) was 3.04.

Take `CSc1ccc(Nc2ncc(Cl)c(NCC(F)(F)F)n2)cc1` [Verbindung 25]: the chromatographic logP in the data set “physchem” (pH 2.7) turned out to be 2.92.

On to `O=S(=O)(c1cccc(Nc2ncc(Cl)c(NCC(F)(F)F)n2)c1)N1CCCCC1` [Verbindung 26], for which the Wirkungsgrad in the data set on Puccinia recondita (500 ppm) was at least 70%. The chromatographic logP in the data set “physchem” (pH 2.7) amounted to 2.58.

Take `CC(C)(C)C(=O)Cc1ccc(Nc2ncc(Cl)c(NCC(F)(F)F)n2)cc1` [Verbindung 27]: the Wirkungsgrad in the data set on Alternaria solani (168 h, 500 ppm) is listed as at least 70%. The chromatographic logP in “physchem” (pH 2.7) turned out to be 3.17.

Regarding `CC(=O)c1ccc(Nc2ncc(Cl)c(NCC(F)(F)F)n2)cc1` [Verbindung 28], the chromatographic logP in the data set “physchem” (pH 2.7) worked out at 2.51.

On to `CC(=O)c1cccc(Nc2ncc(Cl)c(NCC(F)(F)F)n2)c1` [Verbindung 29], for which the Wirkungsgrad (with Puccinia recondita (500 ppm); in data set [1]) was at least 70% throughout. The IC50 in the data set on Fumonisin FB1 is 10 µM; in the data set on Fusarium proliferatum, above 50.1 µM. The compound also returned a chromatographic logP in the data set “physchem” (pH 2.7) of 2.39.

In the data set “physchem” (pH 2.7), `O=C1NC(=O)C(c2ccc(Nc3ncc(Cl)c(NCC(F)(F)F)n3)cc2)N1` (centres unmarked) [Verbindung 30] gave a chromatographic logP of 1.47.

For `COC(=O)Nc1ccc(Nc2ncc(Cl)c(NCC(F)(F)F)n2)cc1` [Verbindung 31], the chromatographic logP in “physchem” (pH 2.7) amounted to 1.85.

Compound `CCOC(=O)Nc1ccc(Nc2ncc(Cl)c(NCC(F)(F)F)n2)cc1` [Verbindung 32] returned a chromatographic logP in the data set “physchem” (pH 2.7) of 2.11.

`CCOC(=O)Nc1cccc(Nc2ncc(Cl)c(NCC(F)(F)F)n2)c1` [Verbindung 33] gave a chromatographic logP in the data set “physchem” (pH 2.7) of 2.36.

With `COC(=O)Nc1cccc(Nc2ncc(Cl)c(NCC(F)(F)F)n2)c1` [Verbindung 35], the Wirkungsgrad with Puccinia recondita (500 ppm) is on record as at least 70%. In addition, the IC50 in the data set on Fumonisin FB1 was 31.6 µM; in the data set with Fusarium proliferatum it was 39.8 µM. The chromatographic logP in the data set “physchem” (pH 2.7) came to 2.06.

`CC(C)(CF)C(=O)Nc1cccc(Nc2ncc(Cl)c(NCC(F)(F)F)n2)c1` [Verbindung 37] registered a Wirkungsgrad in the data set with Puccinia recondita (500 ppm) of at least 70%. Also, in “physchem” (pH 2.7), the chromatographic logP stood at 2.42.

In the data set with Puccinia recondita (500 ppm), `CC(=O)Nc1cc(Nc2ncc(Cl)c(NCC(F)(F)F)n2)ccc1C` [Verbindung 38] gave a Wirkungsgrad of at least 70%. Also, the chromatographic logP in “physchem” (pH 2.7) came out at 1.61.

Turning to `COc1cccc(Nc2ncc(Cl)c(NCC(F)F)n2)c1` [Verbindung 39], the IC50 with Fumonisin FB1 is 3.16 µM; with Fusarium proliferatum, 10 µM. The chromatographic logP in the data set “physchem” (pH 2.7) was 1.96.

`CN(C)C(=O)c1ccc(Nc2ncc(Cl)c(NCC(F)F)n2)cc1` [Verbindung 40] had a Wirkungsgrad in the data set with Puccinia recondita (500 ppm) of at least 70%. The compound also came in with a chromatographic logP in “physchem” (pH 2.7) of 1.55.

On to `C=CCNC(=O)c1ccc(Nc2ncc(Cl)c(NCC(F)F)n2)cc1` [Verbindung 41], for which, in the data set with Puccinia recondita (500 ppm), the Wirkungsgrad is recorded as at least 70%. Further, in “physchem” (pH 2.7), the chromatographic logP stood at 1.84.

With `CC(CC(F)(F)F)Nc1nc(Nc2ccccc2)ncc1Br` (centres unmarked) [Verbindung 42, 5-Brom-N^2-phenyl-N^4-(4,4,4-trifluorbutan-2-yl)pyrimidin-2,4-diamin], the chromatographic logP in the data set “physchem” (pH 2.7) worked out at 2.4.

With `Cc1cccc(Nc2ncc(Cl)c(NCC(F)(F)F)n2)c1` [Verbindung 44], the IC50 is 1.26 µM in the data set with Fumonisin FB1 and 20 µM in the data set on Fusarium proliferatum. The compound further had a chromatographic logP in “physchem” (pH 2.7) of 2.88.

The compound `Cc1cccc(Nc2ncc(Cl)c(NCC(F)F)n2)c1` [Verbindung 45] yielded a Wirkungsgrad in the data set with Puccinia recondita (500 ppm) of at least 70%. Further, the values for the IC50 in the data set with Fumonisin FB1 and in the data set on Fusarium proliferatum were 1.58 µM and 5.01 µM, respectively. In the data set “physchem” (pH 2.7), this compound yielded a chromatographic logP of 2.27.

Regarding `O=Cc1cccc(Nc2ncc(Cl)c(NCC(F)(F)F)n2)c1` [Verbindung 46], the Wirkungsgrad with Alternaria solani (500ppm active compound, tomato, protective, evaluation 7 days after inoculation) is at least 70%; in the data set on Puccinia recondita (setting [2]) it was at least 70%. Also, the chromatographic logP in the data set “physchem” (pH 7.8) was 2.67.

In the case of `O=Cc1cccc(Nc2ncc(Cl)c(NCC(F)F)n2)c1` [Verbindung 47], the Wirkungsgrad in the data set on Puccinia recondita (setting [2]) is at least 70%. The chromatographic logP in the data set “physchem” (pH 7.8) was determined as 2.49.

In the data set with Alternaria solani (168 h, 500 ppm), `CN(C)C(=O)c1ccc(Nc2ncc(Cl)c(NCC(F)(F)F)n2)cc1` [Verbindung 48] gave a Wirkungsgrad of at least 70%. Further, the chromatographic logP in “physchem” (pH 2.7) turned out to be 1.93.
